{"source": "patent US20150017673A1", "about": "“COMPOSITIONS AND METHODS FOR DRUG-SENSITIZATION OR INHIBITION OF A CANCER CELL” (priority 2012, published 2015)", "key": {"[1]": {"tested_on": "multi-drug resistant ovarian cancer cell line NCI/ADR-RES", "assay": "Cell growth assay on NCI/ADR-RES cells", "format": "cell-based", "conditions": "ADR-RES"}, "[2]": {"tested_on": "G3 CHOP-resistant NHL cells", "conditions": "fourth study; doxorubicin only group", "protocol": "In a first efficacy study, 6-8 week old female SCID mice (7 mice per treatment arm) were injected subcutaneously on both flanks with 1×10^7 G3 CHOP-resistant NHL cells. Once palpable tumors (about […] size) appeared, therapies (CHOP or CHOP+rifabutin) were started. CHOP was administered at the maximum tolerated dose (cyclophosphamide, 40 mg/kg i.v.; doxorubicin, 3.3 mg/kg i.v.; vincristine, 0.5 mg/kg i.v.; and prednisone, 0.2 mg/kg orally daily for 5 d) weekly for 3 weeks. Rifabutin in an amount of 100 mg/kg was administered on the day of each CHOP treatment and 24-hours later by gavage. Mouse body weight and tumor size were monitored every two days and tumor size measured by caliper. The tumor volume formula (L*W*W)/2 was used to calculate tumor mass.\nA second efficacy study was conducted where mice were treated before the appearance of palpable tumors. In that experiment, one week after transplantation of CHOP-resistant G3 cells, one group (7 mice) was treated with CHOP-only and a second group (8 mice) was treated with CHOP+rifabutin.\nA third study was conducted in which mice injected with CHOP-resistant G3 cells received reduced dosages of CHOP in combination with 33 mg/kg rifabutin. CHOP+rifabutin was administered weekly beginning one week post-inoculation. Control mice were given no CHOP or rifabutin.\nSCID mice were injected with CHOP-resistant G3 cells in the same manner as the first efficacy study above. Treatments began 2 weeks post-inoculation and were administered twice weekly."}, "[3]": {"tested_on": "T lymphoblastoid leukemia MOLT-4", "assay": "Cell growth assay on MOLT-4 cells", "format": "cell-based", "protocol": "Compositions were tested on CHOP-resistant G3 NHL cells that had been cultivated in RPMI medium for five days. Prior to assay, the cells were counted by haemocytometer and cell concentration standardized to 625,000 cells/ml. Test drugs were solubilized in 100% DMSO and then diluted to final assay concentration with 0.1M phosphate buffered saline (PBS) and a final DMSO concentration of 0.5%. Cells were added to assay plates containing the test drugs (rifabutin+148 ng/ml, 74 ng/ml, 37 ng/ml, or 0 ng/ml doxorubicin) and allowed to incubate for 96 hours at 37° C. and 5% CO2. The metabolic dye rezasurin was added to the wells of the assay plate at a final concentration of 20 μg/ml and the plates were incubated for an additional 24 hours. The plates were then read in a BMG Polarstar plate reader at wavelength (573-605) and the data plotted as OD versus increasing dilutions (i.e. decreasing total amounts) of rifabutin derivative concentration.\nAdditional cell lines used include: ovarian cancer OVCAR-8, T lymphoblastoid leukemia MOLT-4, dexamethasone-resistant multiple myeloma MM.1R, myeloid leukemia cells HL-60, osteosarcoma cells U-2 OS, and myeloma RPMI 8226."}, "[4]": {"tested_on": "human ovarian cancer cell line SK-OV-3", "assay": "SK-OV-3 xenograft efficacy study in SCID mice", "format": "in vivo", "conditions": "after 19 days treatment; DOX only 3.3 mg/kg i.v. weekly", "protocol": "In a fifth efficacy study, we generated xenografts of the human ovarian cancer cell line SK-OV-3, a cell line considered doxorubicin-resistant, by bilateral subcutaneous (s.c.) injection of 1×10^7 tumor cells to establish localized tumors in 6-8 week old female SCID mice. Using rifabutin co-administered with DOX, in vivo efficacy was assessed. […] Cycles of Dox or Dox+rifabutin were given once a week for 4 cycles. This cyclical dosing scheme of mouse models has precedent in the literature and is intended to mimic the cycles of DOXIL® (Centocor Ortho Biotech Products, LP, Raritan, N.J.) given in the clinic. Rifabutin was administered on the day of each DOX treatment and by gavage. Mouse body weight and tumor size were monitored."}, "[5]": {"tested_on": "CHOP-sensitive NHL cell line CRL2631", "assay": "Cell growth assay (resazurin) on CHOP-sensitive CRL2631 NHL cells", "format": "cell-based, human", "conditions": "CRL2631"}, "[6]": {"tested_on": "lymphoma cell line G3", "assay": "Cell growth assay (resazurin fluorescence) on CHOP-resistant G3 NHL cells", "format": "cell-based, human", "outline": "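CHOP-resistant G3 NHL cells grown five days in RPMI medium were counted by haemocytometer and set to 625,000 cells/ml. They were then added to plates holding test drug, first dissolved in 100% DMSO and diluted in 0.1M PBS to 0.5% final DMSO. Plates incubated 96 hours at 37° C. and 5% CO2. Resazurin at 20 μg/ml was added for a further 24 hours, and plates were read on a BMG Polarstar at 573-605.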"}, "[7]": {"conditions": "after administration; cited from earlier work"}, "[8]": {"conditions": "Homo sapiens, therapeutic drug alone, read-out: IC50"}, "[9]": {"conditions": "Homo sapiens, therapeutic drug with Rifabutin, read-out: IC50 (μM) with Rifabutin"}}, "note": "pIC50: −log10 of the molar value. Read-outs that look alike come from different tables or passages of the source.", "data": [{"smiles": "COc1cccc2c1C(=O)c1c(O)c3c(c(O)c1C2=O)C[C@@](O)(C(=O)CO)C[C@@H]3O[C@H]1C[C@H](N)[C@H](O)[C@H](C)O1", "note": "[Doxorubicin, doxorubicin]", "values": [{"measurement": "pIC50", "setting": "[1]; Homo sapiens, NCI/ADR-RES, therapeutic drug alone, read-out: IC50", "value": "< 4.49"}, {"measurement": "IC50", "setting": "[1]; Homo sapiens, NCI/ADR-RES, therapeutic drug with Rifabutin, read-out: IC50 (μM) with Rifabutin", "value": 6.59, "unit": "µM"}, {"measurement": "Fold increase in potency", "setting": "[1]; with vs without Rifabutin", "value": ">4.9", "unit": "fold"}, {"measurement": "mean lifespan", "setting": "[2]", "value": 34.6}, {"measurement": "median lifespan", "setting": "[2]", "value": 33}, {"measurement": "times as likely to die before those treated with doxorubicin+RTI-81", "setting": "[2]", "value": 10.37, "unit": "times"}, {"measurement": "pIC50", "setting": "[3]; [8]", "value": 7.52}, {"measurement": "IC50", "setting": "[3]; [9]", "value": 0.01, "unit": "µM"}, {"measurement": "Fold increase in potency", "setting": "[3]; with vs without Rifabutin", "value": 3, "unit": "fold"}, {"measurement": "average tumor volume", "setting": "[4]", "value": 587, "unit": "mm^3"}, {"measurement": "pIC50", "setting": "[5]; [8]", "value": 6.46}, {"measurement": "IC50", "setting": "[5]; [9]", "value": 0.12, "unit": "µM"}, {"measurement": "Fold increase in potency", "setting": "[5]; with vs without Rifabutin", "value": 2.9, "unit": "fold"}, {"measurement": "pIC50", "setting": "[6]; Homo sapiens, analog alone, lymphoma cell line G3, read-out: IC50", "value": 5.63}, {"measurement": "IC50", "setting": "[6]; Homo sapiens, therapeutic drug with Rifabutin, G3, read-out: IC50 (μM) with Rifabutin", "value": 0.25, "unit": "µM"}, {"measurement": "Fold increase in potency", "setting": "[6]; with vs without Rifabutin, G3", "value": 9.4, "unit": "fold"}, {"measurement": "time of maximal tissue absorption", "setting": "[7]", "value": 48, "unit": "h"}]}]}
